25 molecules from patent US5324747A, “N-substituted anilines, inhibitors of phospholipases A2” (Hoffmann-La Roche Inc., priority 1992, dated 1994) can be followed below.

Assay [1] has as its system PLA2 Rat Paw Edema. In words: Phospholipase A2 Rat Paw Edema. The format is in vivo, Lewis rats. Conditions: Rattus norvegicus; 2 hr; 30 mg/kg; read-out: % Inhib of PLA2 Rat Paw Edema 2 hr (30 mg/kg). The method, then: Phospholipase A2 Rat Paw Edema
Representation compounds of the invention were tested in rats to determine their ability to inhibit the acute inflammatory response induced by the injection of snake venom phospholipase A2. Test compounds are administered intraperitoneally or orally to groups of seven Lewis rats (≈200 gm) 1 hr prior to phospholipase A2 administration. The test compounds are dissolved in dimethyl sulfoxide for intraperitoneal administration and dissolved or suspended in Labrafil M-1944CS for oral administration. At 0 hr, 5 ug (10 units) of purified phospholipase A2 from Naja naja venom (Sigma Chem. Co.) dissolved in 0.1 mL of pyrogen free saline is injected subplantarly into the right hind paw to elicit the inflammatory response. The volume (in mL) of the right hind paw is measured by immersion of the paw to the level of the lateral malleolus in an aqueous plethysmometer immediately prior to the injection of phospholipase A2 and then at 0.5, 2 and 4 hr after phospholipase A2 injection. The paw edema is calculated by subtracting the zero time reading from the readings taken after injection. The percent change of the edema volume from the vehicle treated control is calculated to determine the activity of the test compound. Statistical analysis of the mean paw edema values of the control versus the treated groups is performed using Student's t-test. Significance of changes from mean value for vehicle-treated animals (*p<0.05, **p<0.01, ***p<0.001, ns/not significant).

The test system of assay [2] is Croton Oil Mouse Ear Edema. In words: Croton Oil Mouse Ear Edema Test. The format is in vivo, CD-1 mice. Conditions: topical, coapplied, 6 hours.
Experimental: Twenty five μl of a 1% croton oil solution [dissolved in a mixture of pyridine/water/diethyl ether at a ratio of 5/20/75 (croton oil vehicle)] are applied to the outer side of the right ear of 3-4 week old made CD-1 mice (8 animals per group). The test compounds are dissolved directly in the 1% croton oil solution at various concentrations and coapplied. Control animals receive 25 μl of croton oil vehicle on the right ear. Biopsy punches are removed at 6 hours from the right ear of the animals using a 6 mm skin trephine (Roboz, Washington, D.C.) and the wet weight of the ear punches is determined. The weight of the biopsy punches is a measure of ear inflammation, primarily edema. The data are expressed as percent inhibition relative to control groups.
In assay [3] the target is T1, HSF-PLA2 (Homo sapiens, UniProt P14555).
T1 construct: extracellular enzyme obtained from human synovial fluid (HSF-PLA2); from tissue; host or cells: pooled human synovial fluid, added at 0.1% (v/v)
T1 sequence (P14555 21-144): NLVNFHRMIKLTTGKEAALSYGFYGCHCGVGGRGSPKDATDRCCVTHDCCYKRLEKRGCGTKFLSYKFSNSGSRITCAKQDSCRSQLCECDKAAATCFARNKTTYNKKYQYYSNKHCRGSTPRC
In words: Assay for Inhibition of HSF-PLA2 In Vitro. Type of assay: biochemical. Conditions: for IC50: read-out: Inhib of HSF-PLA2 IC50. The method, then: Assay for Inhibition of HSF-PLA2 In Vitro
The PLA2 used in this test is the extracellular enzyme obtained from human synovial fluid (HSF-PLA2).
The optimal conditions which were developed for the assay of HSF-PLA2 inhibitors are summarized as follows. […] The reaction was initiated by the addition of HSF-PLA2 and duplicate samples of the mixture were incubated in 13×100 mm glass tubes with shaking for 30 minutes at 37° C. […] The extraction of lipids from the stopped reaction mixture was conducted by the further additions of […] of chloroform and 1 ml of water with mixing. After centrifuging, the lower chloroform phase was transferred to smaller glass tubes and the solvent was evaporated to dryness with a nitrogen stream. The extracted lipid residue was redissolved in 50 μl of a solution containing carrier oleic acid (0.2 mg/ml) of chloroform-methanol [9 to 1, v/v]). The whole lipid extract was applied to a preactivated (30 minutes at 110° C.) silica gel-impregnated glass fiber thin layer chromatography sheet (ITLC type SG sheet from Gelman Sciences, Inc., Ann Arbor, Mich.) using hexane-acetic acid (100 to 1, v/v) as the developing solvent. This TLC system rapidly (6 minutes) resolved the enzymatically released product, ^14 C-oleic acid, from the unreacted ^14 C-phospholipid substrate. The unsaturated lipids were located on the chromatogram by a brief exposure to iodine vapor. […] A control incubation of substrate in the absence of HSF-PLA2 was performed in each experiment.

Setting [4] is: read-out: Inhib of HSF-PLA2, % inhibition.

For `CCCCCCCCCCOc1cc(OCCCCCCCCCC)cc(N(CC(=O)OCC(=O)N(CCO)CCO)CC(=O)OCC(=O)N(CCO)CCO)c1` [Example 131], in assay [1], the inhibition in vivo at 30 mg/kg came out at 18%. Besides, in assay [2], the “% Inhib of Croton Oil Mouse Ear Edema (1 mg)” value (“% Inhib” for short) was 47%.
`CCCCCCCCCCOc1cc(OCCCCCCCCCC)cc(N2CC(=O)OC(=O)C2)c1` [Example 30, 4-[3,5-bis(decyloxy)phenyl]2,6-morpholinedione]: the 50% inhibitory concentration (IC50) in assay [3] was 470 nM. The inhibition in vivo at 30 mg/kg in assay [1] came to 91%. The “% Inhib” value in assay [2] is 63%.
For the molecule `CCCCOc1cc(OCCCC)cc(N(CC(=O)O)CC(=O)O)c1` [Example 6a, N-[3,5-bis(butoxy)phenyl]-N-(carboxymethyl)glycine], the IC50 in assay [3] was found to be 2000 nM. Further, the inhibition in vivo at 30 mg/kg in assay [1] was found to be 33%.
Regarding `CCCCCCCCCCCCCCOc1cc(C(=O)O)cc(N(CC(=O)O)CC(=O)O)c1` [Example 69b, N-[3-carboxy-5-(tetradecyloxy)pyhenyl]-N-(carboxymethyl)glycine], in assay [3] (setting [4]), the inhibition at 1 µM worked out at 18%. In addition, the inhibition in vivo at 30 mg/kg in assay [1] was determined as 4%. The “% Inhib” value in assay [2] turned out to be 72%.
Take `CCCCCCCCCCOc1cc(C(=O)O)cc(N(CC(=O)O)CC(=O)O)c1` [Example 69d, N-[3-carboxy-5-(decyloxy)phenyl]-N-(carboxymethyl)glycine]: the inhibition at 1 µM in assay [3] (setting [4]) was found to be 7%. The inhibition in vivo at 30 mg/kg in assay [1] stood at 0%. Further, the “% Inhib” value in assay [2] is 63%.
For the molecule `CCCCCCCCCCNC(=O)c1cc(NCC(=O)O)cc(C(=O)NCCCCCCCCCC)c1` [Example 12, N-[3,5-Bis[(decylamino)carbonyl]phenyl]glycine], in assay [3], the IC50 amounted to 5200 nM. Moreover, the inhibition in vivo at 30 mg/kg in assay [1] was found to be 34%. For the same molecule, in assay [2], the “% Inhib” value is 70%.
`CCCCCCCCCCOc1cc(OCCCCCCCCCC)cc(N(CC(N)=O)CC(=O)O)c1.N` [Example 32, N-(Carbamoylmethyl)-N-[3,5-bis(decyloxy)phenyl]glycine ammonium salt]: the inhibition at 1 µM in assay [3] (setting [4]) turned out to be 48%. Also, the inhibition in vivo at 30 mg/kg in assay [1] turned out to be 23%. For the same molecule, the “% Inhib” value in assay [2] is 54%.
For `O=C(O)CN(CC(=O)O)c1cc(OCCCc2ccccc2)cc(OCCCc2ccccc2)c1` [Example 6g, N-(carboxymethyl)-N-[3,5-bis(3-phenylpropoxy)phenyl]glycine], the IC50 in assay [3] was determined as 1300 nM. The inhibition in vivo at 30 mg/kg in assay [1] is 26%.
On to `CCCCCCCCCCOc1cc(OCCCCCCCCCC)cc(N(CC(=O)OCOC(C)=O)CC(=O)OCOC(C)=O)c1` [Example 132, N-[2-[(Acetyloxy)methoxy]-2-oxoethyl]-N-[3,5-bis(decyloxy)phenyl]glycine (acetyloxy)methyl ester], for which the “% Inhib” value in assay [2] is 36%.
Turning to `CCCCCCCCC(O)COc1cc(OCC(O)CCCCCCCC)cc(N(CC(=O)O)CC(=O)O)c1` (racemic) [Example 6h, rac-N-(carboxymethyl)-N-[3,5-bis[[2-hydroxydecyl)oxy]phenyl]glycine], the IC50 in assay [3] was 500 nM. Besides, the inhibition in vivo at 30 mg/kg in assay [1] stood at 5%.
As to `CCCCc1ccc(N(CC(=O)O)CC(=O)O)cc1` [Example 39b, N-(carboxymethyl)-N-(4-butylphenyl)glycine], the IC50 in assay [3] came to 264000 nM. Also, in assay [1], the inhibition in vivo at 30 mg/kg is -9%.
With `CCCCCCCCCCCCCCCCCCOc1cc(N(CC(=O)O)CC(=O)O)cc([S+](C)[O-])c1` (stereo not drawn) [Example 172, N-(Carboxymethyl)-N-[3-(methylsulfinyl)-5-(octadecyloxy)phenyl]glycine], the inhibition at 1 µM in assay [3] (setting [4]) was determined as 39%. Moreover, the inhibition in vivo at 30 mg/kg in assay [1] came to 43%.
`CCCCCCCCCCOc1cc(C(=O)OC)cc(N(CC(=O)O)CC(=O)O)c1` [Example 69c, N-(carboxymethyl)-N-[(3-methoxycarbonyl)-5-(decyloxy)phenyl]glycine]: the inhibition in vivo at 30 mg/kg in assay [1] came out at 1%. Besides, the “% Inhib” value in assay [2] is 78%.
As for `CCCCCCCCCCCCCCCCCCOc1cccc(NCC(=O)O)c1` [Example 125, N-[3-(Octadecyloxy)phenyl]glycine], the inhibition at 10 µM in assay [3] ((10 μM), read-out: Inhib of HSF-PLA2, % inhibition) is 55%. In addition, the “% Inhib” value in assay [2] was 75%.
Consider `CCCCCCCCCCCCCCCCCCOc1cc(OCCCOc2ccc(C(=O)O)cc2)cc(N(CC(=O)O)CC(=O)O)c1` [Example 58p], for which the IC50 in assay [3] is 600 nM. In addition, the “% Inhib” value in assay [2] is reported as 0%.
`CCCCCCCCCCCCCCCCCC(=O)Nc1cccc(N(CC(=O)O)CC(=O)O)c1` [Example 46]: the inhibition in vivo at 30 mg/kg in assay [1] was found to be 44%. Besides, in assay [2], the “% Inhib” value came out at 35%.
For the molecule `CCCCCCCCCCCCCCCCCCOc1cc(SC)cc(N(CC(=O)O)CC(=O)O)c1` [Example 166, N-(Carboxymethyl)-N-[3-(methylthio)-5-(octadecyloxy)phenyl]glycine], the inhibition at 1 µM in assay [3] (setting [4]) is 88%. Moreover, the inhibition in vivo at 30 mg/kg in assay [1] was found to be 31%.
With `CCCCCCCCCCCCCCNC(=O)c1cc(C(=O)NCCCCCCCCCCCCCC)cc(N(CC(=O)O)CC(=O)O)c1` [Example 6q, N-(carboxymethyl)-N-[3,5-bis[(tetradecylamino)carbonyl]phenyl]glycine], the 50% inhibitory concentration (IC50) in assay [3] came to 300 nM. The inhibition in vivo at 30 mg/kg in assay [1] was 0%.
As for `CCCCCCCCCCCCCCCc1cccc(OCCCOc2cccc(N(CC(=O)O)CC(=O)O)c2)c1` [Example 36i, N-(carboxymethyl)-N-[3-{3-(3-pentadecylphenoxy)propoxy]phenyl]glycine], in assay [3], the IC50 came to 400 nM. Also, the inhibition in vivo at 30 mg/kg in assay [1] was 7%.
In the case of `CCCCCCOc1cc(OCCCCCC)cc(N(CC(=O)O)CC(=O)O)c1` [Example 6b, N-(carboxymethyl)-N-[3,5-bis(hexyloxy)phenyl]glycine], the IC50 in assay [3] was found to be 2100 nM. Also, the inhibition in vivo at 30 mg/kg in assay [1] worked out at 25%.
For `CCCCCCCCCCOc1cc(OCCCCCCCCCC)cc(N(CC(=O)O)CC(=O)OC)c1` [Example 31, N-(2-Methoxy-2-oxoethyl)-N-[3,5-bis(decyloxy)phenyl]glycine], the inhibition in vivo at 30 mg/kg in assay [1] was 21%. The “% Inhib” value in assay [2] amounted to 50%.
In the case of `CCCCCCCCCCCCCCCCCCOc1cc(NC(C)=O)cc(N(CC(=O)O)CC(=O)O)c1` [Example 98], the inhibition at 1 µM in assay [3] (setting [4]) was found to be 98%. Also, the inhibition in vivo at 30 mg/kg in assay [1] stood at 51%.
Regarding `CCCCCCCCCCCCCCNC(=O)Oc1ccc(N(CC(=O)O)CC(=O)O)cc1OC(=O)NCCCCCCCCCCCCCC` [Example 119e, N-(carboxymethyl)-N-[3,4-bis[[(tetradecylamino)carbonyl]oxy]phenyl]glycine], in assay [3] (setting [4]), the inhibition at 1 µM was found to be 33%. In assay [2], the “% Inhib” value is listed as 0%.
With `CCCCCCCCCCCCCC(=O)Oc1ccc(N(CC(=O)O)CC(=O)O)cc1OC(=O)CCCCCCCCCCCCC` [Example 119b, N-(carboxymethyl)-N-[3,4-bis[(1-oxotetradecyl)oxy]phenyl]glycine], in assay [3] (setting [4]), the inhibition at 1 µM turned out to be 80%. Further, the “% Inhib” value in assay [2] turned out to be 75%.
The like results for `CCCCCCCCCCCCCCCCCCNC(=O)Oc1ccc(N(CC(=O)O)CC(=O)O)cc1OC(=O)NCCCCCCCCCCCCCCCCCC` [Example 119d, N-(carboxymethyl)-N-[3,4-bis[[(octadecylamino)carbonyl]oxy]phenyl]glycine] were, in that order, 19% and 14%.
